Results taken from patent US20090215921A1, “MODIFIED DIMETHYLACRYLATE MONOMER, METHOD FOR PREPARING THE SAME, AND POLYMERIC DENTAL COMPOSITE” (priority 2008, published 2009).

What was measured:
[1] = Viscosity measured using a Brookfield viscosmeter; format: physicochemical; conditions: monomer
Protocol: 1. Viscosity is measured using a Brookfield viscosmeter.
(§1) The modified Bis-GMA obtained in Example 2 and Bis-GMA were subjected to viscosity and water absorption tests.

[2] = Water absorption for a modified Bis-GMA monomer, Karl Fischer titration; format: physicochemical
Protocol: 2. Water absorption for a modified Bis-GMA monomer is measured according to Karl Fischer titration.
as §1

SMILES | Viscosity [1] | Water absorption [2]
C=C(C)C(=O)OCC(O)COc1ccc(C(C)(C)c2ccc(OCC(O)COC(=O)C(=C)C)cc2)cc1 (stereo not shown) [Bis-GMA, 2,2-bis[4-(2-hydroxyl-3-methacryloyloxy)phenyl] propane] | 458400 cp | 35 mg/mm^3/week
C=C(C)C(=O)OCC(COc1ccc(C(C)(C)c2ccc(OCC(COC(=O)C(=C)C)O[Si](CC)(CC)CC)cc2)cc1)O[Si](CC)(CC)CC (stereo not shown) [Example 2] | 440 cp | 7.4 mg/mm^3/week
